Test results reported in patent US20230086007A1, “USE OF DENATONIUM BENZOATE AS A SEED TREATMENT FOR CROPS AS BIRD AND/OR INSECT REPELLENT” (KWS SAAT SE & Co. KGaA, priority 2020, published 2023).
Several values for one entry are separate records, joined by “and”; a condition that tells them apart may be missing. Equal entries are not always repeated. Entries after “also recorded” stand apart in the source; their conditions may differ.

Tests used:
[1] = tested on: wireworm of genus Agriotes; test: Wireworm field trial in Italy: insect damage (DAMINS); type: in vivo
[2] = tested on: corvid; test: Additional bird repellent field trials at three locations in Germany, plant stand counts; type: in vivo, Corvus; conditions: corn seed, denatonium benzoate 1 g/50.000 seeds
Source text: The bird repellent effect of denatonium benzoate has further been evaluated in additional field trials at three different location in Germany. Denatonium benzoate alone (DNB) or denatonium benzoate in combination with a solution of micronutrients (DNB+HA450) mixed with a sticker have been applied to the seeds. Denatonium benzoate has been applied in a concentration of 1 g/50.000 seeds. Three chemical references have been included in the trials: Korit (active substance: Ziram), Curb Crop Garden Powder with Sphere's formulation (active substance: aluminium ammonium sulphate) and Schwefal (active substance: organic sulfur). As negative control untreated seed has been used.
Plant stand counts have been assessed and summarized. […] Results of earlier field trials have been confirmed.

[3] = tested on: maize plants; test: Wireworm field trial in Italy: phytotoxicity (PHYGEN) and vigor (VIGOR); conditions: for PHYGEN phytotoxicity, stage E: at emergence; for VIGOR, stage E / VIGOR, stage V3 / VIGOR, stage V5: ratings from 1-10 (10 is best)
Source text: Evaluation took place at emergence (E), at V3 stage (=3 leaves unfolded) and at V5 stage (=5 leaves unfolded). The following characteristics have been phenotyped: phytotoxicity (PHYGEN) at stage E, V3 and V5 in % per plot, vigor (VIGOR) at stage E, V3 and V5 in ratings from 1-10 (10 is best), insect damage (DAMINS) at stage V5 in plants per row (left DAMINS column in Table 7) and in % per row (right DAMINS column in Table 7).

[4] = LC-MS-MS determination of denatonium benzoate in corn plants grown from treated seed; type: in vivo, Zea mays; conditions: for Bitrex concentration: first leaf of corn seedling
Description: To determine, if denatonium benzoate could be systemic (taken up by the plant), a Liquid Chromatography with tandem mass spectrometry (LC-MS-MS) was performed, which is a powerful analytical technique that combines the separating power of liquid chromatography with the highly sensitive and selective mass analysis capability of triple quadrupole mass spectrometry. Therefore, we used 1) seedlings just after field emergence to determine the content of denatonium benzoate in the complete plant and in the sprout separately (Table 3), as well as 2) middle-aged plants (V6-V8), where the leaves have been investigated (Table 4).
Beside above experiments the concentration of Bitrex in the first leaf of the seedling have been measured wherein different dosages of Bitrex have been applied to the seed. The higher the application rate, the higher was the Bitrex concentration in the tested leaf tissue.

[5] = tested on: wireworm of genus Agriotes; test: Wireworm repellent pot assay on corn in greenhouse; type: in vivo; conditions: eight days after sowing
Description: Testing took place in pot assays. Per pot four corn seeds were sown (see FIG. 2A). In each pot four wireworm of genus Agriotes were placed in a central cavity of 5 cm depth (see FIG. 2B). […] The seeds in the pots were germinated and seedlings were grown under controlled conditions in greenhouse.
Eight days after sowing the plant biomass (FIG. 3; Table 6) as well as seed damage (FIG. 4A; Table 6) were assessed.

CC[N+](CC)(CC(=O)Nc1c(C)cccc1C)Cc1ccccc1.O=C([O-])c1ccccc1 [Bitrex, N-Benzyl-2-(2,6-dimethylanilino)-N, N-diethyl-2-oxoethan-1-aminium benzoate]
DAMINS insect damage, stage V5 ([1]; 5 g Bitrex per 50,000 seeds): 6.8 plants per row and 5.62 % per row | DAMINS insect damage, stage V5 ([1]; 10 g Bitrex per 50,000 seeds): 7.3 plants per row and 6.07 % per row | DAMINS insect damage, stage V5 ([1]; 20 g Bitrex per 50,000 seeds): 5.8 plants per row and 4.79 % per row | efficiency as corvid repellent for corn [2]: excellent effect; also recorded: comparable with the best bird repellents like Korit and Sphere | PHYGEN phytotoxicity, stage V3 ([3]; 5 g Bitrex per 50,000 seeds): 0 % per plot | PHYGEN phytotoxicity, stage V5 ([3]; 5 g Bitrex per 50,000 seeds): 0 % per plot | PHYGEN phytotoxicity, stage E ([3]; 5 g Bitrex per 50,000 seeds): 0 % per plot | VIGOR, stage E ([3]; 5 g Bitrex per 50,000 seeds): 10 | VIGOR, stage V3 ([3]; 5 g Bitrex per 50,000 seeds): 10 | VIGOR, stage V5 ([3]; 5 g Bitrex per 50,000 seeds): 10 | PHYGEN phytotoxicity, stage V3 ([3]; 10 g Bitrex per 50,000 seeds): 0 % per plot | PHYGEN phytotoxicity, stage V5 ([3]; 10 g Bitrex per 50,000 seeds): 0 % per plot | PHYGEN phytotoxicity, stage E ([3]; 10 g Bitrex per 50,000 seeds): 0 % per plot | VIGOR, stage E ([3]; 10 g Bitrex per 50,000 seeds): 10 | VIGOR, stage V3 ([3]; 10 g Bitrex per 50,000 seeds): 10 | VIGOR, stage V5 ([3]; 10 g Bitrex per 50,000 seeds): 10 | PHYGEN phytotoxicity, stage V3 ([3]; 20 g Bitrex per 50,000 seeds): 0 % per plot | PHYGEN phytotoxicity, stage V5 ([3]; 20 g Bitrex per 50,000 seeds): 0 % per plot | PHYGEN phytotoxicity, stage E ([3]; 20 g Bitrex per 50,000 seeds): 0 % per plot | VIGOR, stage E ([3]; 20 g Bitrex per 50,000 seeds): 10 | VIGOR, stage V3 ([3]; 20 g Bitrex per 50,000 seeds): 10 | VIGOR, stage V5 ([3]; 20 g Bitrex per 50,000 seeds): 10 | negative effect on plant vitality with respect to phytotoxicity and plant vigor ([3]; Bitrex applied at high concentration (5-20 g per 50,000 seeds), field trial): has not been observed | μg DNB/plant or sprout ([4]; corn seedlings just after field emergence, complete plants): 5.87 μg DNB/plant or sprout | concentration in sprouts ([4]; corn, early stage): 200-800 ppb | concentration in the complete plant ([4]; corn, early stage): 10-20 ppm | Bitrex concentration ([4]; 0.8 g/unit applied to seed): 36.8 ng/g | Bitrex concentration ([4]; 1 g/unit applied to seed): 96.2 ng/g and 88.7 ng/g and 75.2 ng/g and 55.0 ng/g and 70.4 ng/g and 97.1 ng/g | Bitrex concentration ([4]; 2 g/unit applied to seed): 178.2 ng/g and 155.6 ng/g | concentration in leaves ([4]; middle-aged corn plants): 5-20 ppb | Final Conc. ([4]; middle-aged corn plants (V6-V8), leaves, sample 14 DNB 0.8g, plants P1-P3, listed as DNB): 5.49 ppb/ng/g and 5.34 ppb/ng/g and 5.46 ppb/ng/g | biomass of plantlets compared with controls [5]: comparable or even more biomass than control plants without wireworm infestations
